From ChEMBL document CHEMBL1201862, “PubChem BioAssay data set” (2004)
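Five concentrations, 48 hours, 96-well plates. Abbreviation: GI50, concentration required for 50% inhibition of growth.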 Active and inactive are the calls of the source. Cut-off read from the data, not from the text of the source: active = GI50 up to about 1.1 µM and inactive = higher.

Key:
Test in all cases: inhibition of tumour cell growth, NCI panel, 48 h
[1] = system: SF-295
[2] = system: MOLT-4
[3] = system: SR
[4] = system: OVCAR-5
[5] = system: UACC-62
[6] = system: A549
[7] = system: Malme-3M
[8] = system: NCI-H226
[9] = system: RPMI-8226
[10] = system: COLO 205
[11] = system: UACC-257
[12] = system: ACHN
[13] = system: OVCAR-4
[14] = system: UO-31
[15] = system: K562
[16] = system: OVCAR-3
[17] = system: BT-549
[18] = system: MDA-N
[19] = system: SK-MEL-5
[20] = system: HT-29
[21] = system: PC-3
[22] = system: RXF 393
[23] = system: NCI-H460
[24] = system: HOP-62
[25] = system: T47D
[26] = system: SNB-19
[27] = system: DU-145
[28] = system: OVCAR-8
[29] = system: EKVX
[30] = system: MDA-MB-231
[31] = system: U-251
[32] = system: SK-OV-3
[33] = system: SN12C
[34] = system: SF-539
[35] = system: HCC 2998
[36] = system: SNB-75
[37] = system: CCRF-CEM
[38] = system: KM12
[39] = system: HL-60
[40] = system: MCF7
[41] = system: SW-620
[42] = system: A498
[43] = system: Hs-578T
[44] = system: M14
[45] = system: HOP-92
[46] = system: NCI/ADR-RES
[47] = system: CAKI-1
[48] = system: HCT-15
[49] = system: SF-268
[50] = system: MDA-MB-435
[51] = system: SK-MEL-2
[52] = system: NCI-H522
[53] = system: HCT-116
[54] = system: NCI-H23
[55] = system: TK-10
[56] = system: IGROV-1
[57] = system: 786-0
[58] = system: LOX IMVI

In the case of `CCc1nnc2sc(-c3ccc(-c4ccccc4[N+](=O)[O-])o3)nn12`, the GI50 [1] is reported as 32.6 µM (inactive), the GI50 [2] is reported as 19.5 µM (inactive) and the GI50 [3] is reported as 20.1 µM (inactive). The GI50 [4] was 62.2 µM (inactive), the GI50 [5] was 45.7 µM (inactive) and the GI50 [6] was 36.5 µM (inactive). For the same molecule, the GI50 [7] was > 100 µM (inactive), the GI50 [8] was 14.4 µM (inactive) and the GI50 [9] was 20.7 µM (inactive). The GI50 [10] was 34.9 µM (inactive), the GI50 [11] was 61.7 µM (inactive) and the GI50 [12] was 62.2 µM (inactive). For the same molecule, the GI50 [13] was 53.1 µM (inactive), the GI50 [14] was 41.9 µM (inactive) and the GI50 [15] was 27.7 µM (inactive). The GI50 [16] was 32.1 µM (inactive), the GI50 [17] was 36.6 µM (inactive) and the GI50 [18] was 19.9 µM (inactive). The GI50 [19] was 27.7 µM (inactive), the GI50 [20] was 35.6 µM (inactive) and the GI50 [21] was 42.9 µM (inactive). For the same molecule, the GI50 [22] was 57.9 µM (inactive), the GI50 [23] was 31 µM (inactive) and the GI50 [24] was 87.9 µM (inactive). The GI50 [25] was 36.3 µM (inactive), the GI50 [26] was 75.3 µM (inactive) and the GI50 [27] was 66.2 µM (inactive). The GI50 [28] was 50.7 µM (inactive), the GI50 [29] was 21.6 µM (inactive) and the GI50 [30] was 53.1 µM (inactive). For the same molecule, the GI50 [31] was 40.6 µM (inactive), the GI50 [32] was 40 µM (inactive) and the GI50 [33] was 53 µM (inactive). The GI50 [34] was 29.7 µM (inactive), the GI50 [35] was 50.1 µM (inactive) and the GI50 [36] was > 100 µM (inactive). The GI50 [37] was 26.9 µM (inactive), the GI50 [38] was 30.8 µM (inactive) and the GI50 [39] was 24 µM (inactive). For the same molecule, the GI50 [40] was 19.7 µM (inactive), the GI50 [41] was 34 µM (inactive) and the GI50 [42] was 54 µM (inactive). The GI50 [43] was 54.3 µM (inactive), the GI50 [44] was 37.6 µM (inactive) and the GI50 [45] was 84.7 µM (inactive). The GI50 [46] was 27 µM (inactive), the GI50 [47] was 66.4 µM (inactive) and the GI50 [48] was 30.1 µM. For the same molecule, the GI50 [49] was 49.1 µM (inactive), the GI50 [50] was 20.3 µM (inactive) and the GI50 [51] was 28.1 µM (inactive). The GI50 [52] was 37.4 µM (inactive), the GI50 [53] was 37.3 µM (inactive) and the GI50 [54] was 32.9 µM (inactive). For the same molecule, the GI50 [55] was 75.7 µM (inactive), the GI50 [56] was 47.9 µM (inactive) and the GI50 [57] was 54.8 µM (inactive). The GI50 [58] was 36.2 µM (inactive).
